The source made the active and inactive calls. No cut-off for these calls is given here.
Assays:
Aspergillus fumigatus [1] = experiment: Antifungal activity against Aspergillus fumigatus AF293 assessed as reduction in fungal growth incubated for 48 hrs by CLSI based broth microdilution method; format: functional
[2] = tested on: Trichophyton mentagrophytes; experiment: Fungicidal activity against Trichophyton mentagrophytes KCCM60449 at 4 times after 2 hrs by time-kill kinetics assay; format: functional, organism-based
Cryptococcus neoformans [3] = experiment: Synergistic antifungal activity against Cryptococcus neoformans H99 assessed as FICI in presence of AmB after 48 hrs by checker board assay; format: functional, organism-based
[4] = AUC(0 to t) in Sprague-Dawley rat at 2 mg/kg, iv; format: ADME, organism-based; design: dose 2 mg/kg; conditions: in vivo
[5] = Toxicity in po dosed Sprague-Dawley rat assessed as lethal dose measured after 14 days; format: organism-based; conditions: in vivo, 336 h, time 14 day
[6] = Stability in mouse liver microsomes assessed as parent compound remaining after 30 mins; format: ADME, Microsome; conditions: liver microsomes, read-out: Stability
[7] = Effect on cell wall integrity in Cryptococcus neoformans H99 assessed as activation of Mpk1 by measuring increase in Mpk1 phosphorylation ratio at 8 ug/ml after 60 mins by immunoblot analysis (reference value: 1); format: functional; conditions: dose 8 µg/ml, 1 h
[8] = AUC(0 to t) in Sprague-Dawley rat at 10 mg/kg, po; format: ADME, organism-based; design: dose 10 mg/kg; conditions: in vivo
[9] = Stability in human liver microsomes assessed as parent compound remaining after 30 mins; format: ADME, Microsome; conditions: read-out: Stability
[10] = Toxicity in Sprague-Dawley rat assessed as death at 500 to 1000 mg/kg, po measured after 14 days; format: organism-based; conditions: in vivo, 336 h, dose 500-1000 mg/kg, time 14 day
Cryptococcus neoformans [11] = experiment: Fungicidal activity against Cryptococcus neoformans H99 at 8 times of MIC after 4 hrs by time-kill kinetics assay; format: functional, organism-based
Aspergillus fumigatus [12] = experiment: Synergistic antifungal activity against Aspergillus fumigatus AF293 assessed as FICI in presence of AmB after 48 hrs by checker board assay; format: functional, organism-based
[13] = Cmax in dog at 10 mg/kg, po; format: ADME, organism-based, Canis lupus familiaris; design: route oral, dose 10 mg/kg; conditions: in vivo
Cryptococcus neoformans [14] = experiment: Additive antifungal activity against Cryptococcus neoformans H99 assessed as FICI in presence of 5-FC after 48 hrs by checker board assay; format: functional, organism-based
Cytochrome P450 2C9 = Cytochrome P450 2C9 (Homo sapiens, UniProt P11712); experiment: Inhibition of CYP2C9 (unknown origin) relative to control; format: ADME
Cytochrome P450 2C9, sequence (P11712 whole entry): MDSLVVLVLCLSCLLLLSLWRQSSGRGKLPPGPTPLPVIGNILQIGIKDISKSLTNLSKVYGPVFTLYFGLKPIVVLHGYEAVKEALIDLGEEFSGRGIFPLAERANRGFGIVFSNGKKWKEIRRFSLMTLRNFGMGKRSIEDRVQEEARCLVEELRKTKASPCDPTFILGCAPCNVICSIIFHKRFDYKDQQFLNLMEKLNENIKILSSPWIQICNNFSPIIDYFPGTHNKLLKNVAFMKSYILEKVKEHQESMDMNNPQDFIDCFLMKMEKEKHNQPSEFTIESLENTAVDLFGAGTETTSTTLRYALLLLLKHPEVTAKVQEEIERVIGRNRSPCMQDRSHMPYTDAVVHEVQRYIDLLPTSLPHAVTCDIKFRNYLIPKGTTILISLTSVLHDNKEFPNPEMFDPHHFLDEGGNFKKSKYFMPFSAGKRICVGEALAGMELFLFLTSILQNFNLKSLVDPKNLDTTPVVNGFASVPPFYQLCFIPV

[15] = AUC(0 to t) in dog at 1 mg/kg, iv; format: ADME, organism-based, Canis lupus familiaris; design: dose 1 mg/kg; conditions: in vivo
[16] = Oral bioavailability in Sprague-Dawley rat at 10 mg/kg; format: ADME, organism-based; conditions: in vivo
Candida albicans [17] = experiment: Induction of morphological changes in Candida albicans ATCC SC5314 assessed as appearance of detached cytoplasm at 32 ug/ml incubated for 24 hrs by TEM analysis; format: functional, organism-based; conditions: dose 32.0 µg/ml
Trichophyton rubrum [18] = experiment: Fungicidal activity against Trichophyton rubrum KCCM60450 at 2 times MIC after 8 hrs by time-kill kinetics assay; format: functional, organism-based
[19] = Effect on cell wall integrity in Cryptococcus neoformans H99 assessed as activation of Mpk1 by measuring increase in Mpk1 phosphorylation ratio at 8 ug/ml after 30 mins by immunoblot analysis (reference value: 1); format: functional; conditions: dose 8 µg/ml, 0.5 h
[20] = AUC(0 to t) in dog at 10 mg/kg, po; format: ADME, organism-based, Canis lupus familiaris; design: dose 10 mg/kg; conditions: in vivo
Cryptococcus neoformans [21] = experiment: Antifungal activity against Cryptococcus neoformans H99 assessed as reduction in fungal growth incubated for 72 hrs by CLSI based broth microdilution method; format: functional
Trichophyton rubrum [22] = experiment: Fungicidal activity against Trichophyton rubrum KCCM60450 at 4 ug/ml by time-kill kinetics assay; format: functional, organism-based; conditions: dose 4.0 µg/ml
[23] = Cmax in cynomolgus monkey at 10 mg/kg, iv; format: ADME, organism-based, Macaca fascicularis; design: route intravenous, dose 10 mg/kg; conditions: in vivo
Trichophyton rubrum [24] = experiment: Ex vivo antifungal activity against Trichophyton rubrum KCCM60450 infected in human nail assessed as reduction in ATP level at 5 % w/w after 24 hrs; format: functional; design: scale not given: the % may be the effect or the level left
Cytochrome P450 2D6 = Cytochrome P450 2D6 (Homo sapiens, UniProt P10635); experiment: Inhibition of CYP2D6 (unknown origin) relative to control; format: ADME
Cytochrome P450 2D6, sequence (P10635 whole entry): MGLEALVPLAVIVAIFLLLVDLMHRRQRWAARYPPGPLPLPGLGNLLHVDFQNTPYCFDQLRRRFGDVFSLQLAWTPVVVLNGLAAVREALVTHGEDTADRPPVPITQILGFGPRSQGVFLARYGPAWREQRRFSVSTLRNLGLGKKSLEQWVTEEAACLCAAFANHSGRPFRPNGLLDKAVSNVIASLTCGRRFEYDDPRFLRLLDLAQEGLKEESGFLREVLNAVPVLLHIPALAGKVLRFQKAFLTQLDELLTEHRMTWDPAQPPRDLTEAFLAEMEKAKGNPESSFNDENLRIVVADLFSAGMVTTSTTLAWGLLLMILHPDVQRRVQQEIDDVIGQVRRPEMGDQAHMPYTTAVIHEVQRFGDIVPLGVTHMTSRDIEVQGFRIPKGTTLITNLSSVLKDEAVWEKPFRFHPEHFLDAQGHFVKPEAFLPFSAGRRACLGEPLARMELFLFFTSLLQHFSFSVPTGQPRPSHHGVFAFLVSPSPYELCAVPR

[25] = Cmax in Sprague-Dawley rat at 10 mg/kg, po; format: ADME, organism-based; design: route oral, dose 10 mg/kg; conditions: in vivo
[26] = Stability in minipig hepatocytes assessed as parent compound remaining incubated for 60 mins; format: ADME, cell-based, Sus scrofa domesticus, Liver; conditions: pig, read-out: Stability
[27] = Stability in rat hepatocytes assessed as parent compound remaining incubated for 60 mins; format: ADME, cell-based, Hepatocyte; conditions: read-out: Stability
Cytochrome P450 3A4 = Cytochrome P450 3A4 (Homo sapiens, UniProt P08684); experiment: Inhibition of CYP3A4 (unknown origin) relative to control; format: ADME
Cytochrome P450 3A4, sequence (P08684 whole entry): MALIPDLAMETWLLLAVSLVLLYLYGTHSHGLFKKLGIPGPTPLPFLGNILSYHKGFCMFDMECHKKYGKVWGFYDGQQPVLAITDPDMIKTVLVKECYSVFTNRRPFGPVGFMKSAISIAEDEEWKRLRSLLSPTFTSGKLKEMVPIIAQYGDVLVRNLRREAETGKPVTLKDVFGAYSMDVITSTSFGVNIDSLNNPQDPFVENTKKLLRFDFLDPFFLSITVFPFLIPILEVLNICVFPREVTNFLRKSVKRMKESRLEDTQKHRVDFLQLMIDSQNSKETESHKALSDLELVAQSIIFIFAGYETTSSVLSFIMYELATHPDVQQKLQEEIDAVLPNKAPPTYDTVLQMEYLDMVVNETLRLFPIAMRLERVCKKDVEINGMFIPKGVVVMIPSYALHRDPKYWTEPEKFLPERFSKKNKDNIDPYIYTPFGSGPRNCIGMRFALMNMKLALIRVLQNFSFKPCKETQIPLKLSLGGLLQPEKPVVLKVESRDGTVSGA

[28] = Toxicity in Sprague-Dawley rat assessed as body weight gain at 500 to 1000 mg/kg, po measured after 3 days; format: organism-based; conditions: in vivo, 72 h, dose 500-1000 mg/kg, time 3 day
Candida albicans [29] = experiment: Synergistic antifungal activity against Candida albicans ATCC SC5314 assessed as FICI in presence of AmB after 48 hrs by checker board assay; format: functional, organism-based
Cryptococcus neoformans [30] = experiment: Fungicidal activity against Cryptococcus neoformans H99 at 8 times of MIC after 2 hrs by time-kill kinetics assay; format: functional, organism-based
Cytochrome P450 2C19 = Cytochrome P450 2C19 (Homo sapiens, UniProt P33261); experiment: Inhibition of CYP2C19 (unknown origin) relative to control; format: ADME
Cytochrome P450 2C19, sequence (P33261 whole entry): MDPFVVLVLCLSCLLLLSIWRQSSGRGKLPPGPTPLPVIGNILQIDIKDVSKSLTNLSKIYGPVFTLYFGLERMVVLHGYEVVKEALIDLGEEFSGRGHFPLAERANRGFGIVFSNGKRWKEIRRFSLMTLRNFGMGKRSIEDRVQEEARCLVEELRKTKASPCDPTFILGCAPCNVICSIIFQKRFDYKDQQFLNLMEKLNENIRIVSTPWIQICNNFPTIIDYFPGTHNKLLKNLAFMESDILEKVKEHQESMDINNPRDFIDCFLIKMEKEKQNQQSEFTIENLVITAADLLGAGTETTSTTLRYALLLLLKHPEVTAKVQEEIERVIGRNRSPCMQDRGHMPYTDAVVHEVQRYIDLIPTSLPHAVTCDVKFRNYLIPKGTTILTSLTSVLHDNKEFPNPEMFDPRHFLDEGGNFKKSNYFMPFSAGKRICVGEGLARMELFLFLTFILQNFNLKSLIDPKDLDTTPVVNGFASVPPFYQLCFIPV

Candida albicans [31] = experiment: Induction of morphological changes in Candida albicans ATCC SC5314 assessed as reduction in cell wall thickness at 32 ug/ml incubated for 24 hrs by TEM analysis; format: functional, organism-based; conditions: dose 32.0 µg/ml
[32] = Stability in human hepatocytes assessed as parent compound remaining incubated for 60 mins; format: ADME, cell-based, Hepatocyte; conditions: read-out: Stability
Trichophyton rubrum [33] = experiment: Fungicidal activity against Trichophyton rubrum KCCM60450 at 4 times after 2 hrs by time-kill kinetics assay; format: functional, organism-based
[34] = Cmax in dog at 1 mg/kg, iv; format: ADME, organism-based, Canis lupus familiaris; design: route intravenous, dose 1 mg/kg; conditions: in vivo
Trichophyton rubrum [35] = experiment: Ex vivo antifungal activity against Trichophyton rubrum KCCM60450 infected in human nail assessed as reduction in ATP level at 0.5 % w/w after 24 hrs; format: functional; design: scale not given: the % may be the effect or the level left
[36] = Stability in rat plasma assessed as parent compound remaining after 30 to 120 mins; format: ADME, cell-free; conditions: time 30-120 min
Candida albicans [37] = experiment: In vivo antifungal activity against Candida albicans 90028 infected in BALB/c mouse assessed as appearance of soft epidermal stratum corneum measured upto 48 hrs post infection by histopathological analysis; format: functional, organism-based; conditions: time hrs <=48
[38] = AUC(0 to t) in cynomolgus monkey at 10 mg/kg, iv; format: ADME, organism-based, Macaca fascicularis; design: dose 10 mg/kg; conditions: in vivo
[Candida] auris = Synergistic antifungal activity against Candida auris B8841 assessed as FICI in presence of ICZ after 48 hrs by checker board assay; format: functional, organism-based; conditions: Candidozyma auris
Nakaseomyces glabratus = experiment: Synergistic antifungal activity against Candida glabrata BG2 assessed as FICI in presence of AmB after 48 hrs by checker board assay; format: functional, organism-based
[39] = tested on: Trichophyton mentagrophytes; experiment: Fungicidal activity against Trichophyton mentagrophytes KCCM60449 at 4 ug/ml by time-kill kinetics assay; format: functional, organism-based; conditions: dose 4.0 µg/ml
[40] = Effect on cell wall integrity in Cryptococcus neoformans H99 assessed as activation of Mpk1 by measuring increase in Mpk1 phosphorylation ratio at 8 ug/ml after 90 mins by immunoblot analysis (reference value: 1); format: functional; conditions: dose 8 µg/ml, 1.5 h

SMILES: CCCC(N)C(=O)NCCc1ccc(-c2ccc(Cl)c(Cl)c2)cc1.Cl (racemic)
- MIC (Aspergillus fumigatus [1]): 4 µg/mL
- Activity [2]: Active
- Activity (Cryptococcus neoformans [3]): Active
- AUC(0-t) [4]: 265 ng·h/mL
- Activity [5]: 2000 mg/kg
- remaining at 0.5 h [6]: 78.2%
- Ratio [7]: 3.62
- AUC(0-t) [8]: 527 ng·h/mL
- remaining at 0.5 h [9]: 90%
- Activity [10]: Non-Toxic
- Activity (Cryptococcus neoformans [11]): Active
- Activity (Aspergillus fumigatus [12]): Active
- Cmax [13]: 4390 ng/mL
- Activity (Cryptococcus neoformans [14]): Active
- inhibition (INH) (Cytochrome P450 2C9): 77.3%
- AUC(0-t) [15]: 2680 ng·h/mL
- bioavailability [16]: 39.8%
- Activity (Candida albicans [17]): Active
- Activity (Trichophyton rubrum [18]): Active
- Ratio [19]: 2.67
- AUC(0-t) [20]: 30500 ng·h/mL
- MIC (Cryptococcus neoformans [21]): 1 µg/mL
- Activity (Trichophyton rubrum [22]): Active
- Cmax [23]: 1080 ng/mL
- Activity (Trichophyton rubrum [24]): 19.92%
- inhibition (INH) (Cytochrome P450 2D6): 88.7%
- Cmax [25]: 97.3 ng/mL
- remaining at 1 h [26]: 49.6%
- remaining at 1 h [27]: 36.2%
- inhibition (INH) (Cytochrome P450 3A4): 43.7%
- Activity [28]: Non-Toxic
- Activity (Candida albicans [29]): Active
- Activity (Cryptococcus neoformans [30]): Active
- inhibition (INH) (Cytochrome P450 2C19): 86%
- Activity (Candida albicans [31]): Active
- remaining at 1 h [32]: 79.1%
- Activity (Trichophyton rubrum [33]): Active
- Cmax [34]: 296 ng/mL
- Activity (Trichophyton rubrum [35]): 32.72%
- Stability [36]: 96.2%
- Activity (Candida albicans [37]): Active
- AUC(0-t) [38]: 7150 ng·h/mL
- Activity ([Candida] auris): inactive
- Activity (Nakaseomyces glabratus): Active
- Activity [39]: Active
- Ratio [40]: 3.32

From ChEMBL document CHEMBL5030558, “Optimization and Evaluation of Novel Antifungal Agents for the Treatment of Fungal Infection” (J Med Chem, 2021)
